The source of these data is patent US5883293A, “Conformationally constrained backbone cyclized peptide analogs” (Peptor Ltd., priority 1994, dated 1999).

The term inhibition denotes how much of the control response was suppressed.

Data set [1] concerns the target T1, bradykinin receptors (PC 12 cells) (Rattus norvegicus, UniProt P25023).
T1 construct: PC 12 cells that express bradykinin receptors; endogenous in cells; host or cells: PC12 cells
T1 sequence (P25023 1-396): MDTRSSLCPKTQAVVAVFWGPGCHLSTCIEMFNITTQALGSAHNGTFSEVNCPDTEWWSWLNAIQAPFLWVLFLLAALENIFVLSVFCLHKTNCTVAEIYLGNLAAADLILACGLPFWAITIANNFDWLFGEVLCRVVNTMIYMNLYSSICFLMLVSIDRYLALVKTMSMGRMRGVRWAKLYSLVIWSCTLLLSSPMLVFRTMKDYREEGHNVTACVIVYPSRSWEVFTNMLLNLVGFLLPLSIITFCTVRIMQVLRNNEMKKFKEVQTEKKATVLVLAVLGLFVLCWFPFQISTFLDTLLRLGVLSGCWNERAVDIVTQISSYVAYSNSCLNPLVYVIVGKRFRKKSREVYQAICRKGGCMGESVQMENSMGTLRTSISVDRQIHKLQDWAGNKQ
The data set is described as follows: Bradykinin antagonist assay: (3H)dopamine release from PC 12 cells. The format is cell-based. The following applies: at 10^-6 M; (3H)DA release stimulated by bradykinin, PC12 cells. On the procedure: BRADYKININ ANTAGONIST ASSAY (Displacement of (^3 H)dopamine release from PC 12 cells)
Novel backbone cyclized peptide analogs of the present invention were assayed in vitro for bradykinin antagonist activity by protection of (^3 H)dopamine release from PC 12 cells that express bradykinin receptors. PC12 cells were grown in Dulbecco Modified Eagle's medium with high glucose, supplemented with 10% horse serum, 5% fetal calf serum, 130 units/ml penicillin and 0.1 mg/ml streptomycin. For experiments, cells were removed from the medium using 1 mmole EDTA and replated on collagen coated-12-well plates and assayed 24 hr later. Release of (^3 H)dopamine was determined as follows: cells were incubated for 1.5 hr at 37° C. with 0.5 ml of growth medium and […] (^3 H)DA (41 Ci/mmole) and […] pargyline followed by extensive washing with medium (3×1 ml) and release buffer consisting of (mM): 130 NaCl; 5 KCl; 25 NaHCO3; 1 NaH2 PO4; 10 glucose and 1.8 CaCl2. In a typical experiment, cells were incubated with 0.5 ml buffer for 5 consecutive incubation periods of 3 min each at 37° C. Spontaneous (^3 H)DA release was measured by collecting the medium released by the cells successively for the first 3 min period. Antagonists were added to the cells 3 min prior to stimulation (at the second period), and stimulation of (^3 H)DA release by 100 nmole of bradykinin are monitored during the 3 period by 60 mmole KCl. The remaining of the (^3 H)DA was extracted from the cells by over night incubation with 0.5 ml 0.1N HCl. (^3 H)DA release during each 3 min period was expressed as a % of the total (^3 H)DA content of the cells. Net evoked release was calculated from (^3 H)DA release during stimulation period after subtracting basal (^3 H)DA release in the preceding baseline period if not indicated otherwise.

The target in data set [2] is Somatostatin Receptor (SSTR) Subtype SSTR-5 (Homo sapiens, UniProt P35346). Description: Inhibition of radioactive iodinated somatostatin (SRIF-14) binding, CHO cells expressing SSTR-5. The settings on record: read-out: percent inhibition of SRIF-14 binding, SSTR-5; for inhibition at 1 µM: Conc. 10^-6 M; for inhibition at 0.1 µM: Conc. 10^-7 M; for inhibition at 0.01 µM: Conc. 10^-8 M. The source says:
(§1) Receptor binding specificity of cyclic peptide analogs
(§2) The values presented are percent inhibition of radioactive iodinated somatostatin (SRIF-14) binding.

Data set [3] concerns Somatostatin Receptor (SSTR) Subtype SSTR-2B. Description: Inhibition of radioactive iodinated somatostatin (SRIF-14) binding, CHO cells expressing SSTR-2B. The following applies: read-out: percent inhibition of SRIF-14 binding, SSTR-2B; for inhibition at 1 µM: Conc. 10^-6 M; for inhibition at 0.1 µM: Conc. 10^-7 M; for inhibition at 0.01 µM: Conc. 10^-8 M.
From the text: as §1, §2

The nature of data set [4]: In vitro biostability in human serum (HPLC determination of peptide degradation). The settings on record: 37° C., FIG. 1. It is filed as in vitro ADME. The method, then:
FIG. 1 is a graph showing in vitro biostability of somatostatin and three analogs thereof in human serum. The graph depicts the percentage of undegraded molecules for each of the compounds initially and after various periods of time.
Resistance to biodegradation of SST analogs
The in vitro biostability of a SST cyclic peptide analog, PTR 3002, was measured in human serum, and was compared to the same sequence in a non-cyclic peptide analog (PTR 3001), to octreotide (Sandostatin), and to native somatostatin (SRIF). […] The assay was based on HPLC determination of peptide degradation as a function of time at 37° C.

Data set [5] in a line: Lack of toxicity of cyclized peptide analogs in rats. The format is in vivo. The source says: Lack of toxicity of cyclized peptide analogs
These two doses are several orders of magnitude higher than those needed to elicit the desired endocrine effect. The peptides dissolved in saline produced no untoward side effects on the central nervous system, cardiovascular system, body temperature, nor on the periphery of the animals.

For data set [6], the target named is T2, BK2 receptors (Cavia porcellus, UniProt O70526).
T2 construct: This tissue contains predominantly BK2 receptors; from tissue; host or cells: guinea-pig ileum, longitudinal muscle layer with adhering mesenteric plexus
T2 sequence (O70526 1-372): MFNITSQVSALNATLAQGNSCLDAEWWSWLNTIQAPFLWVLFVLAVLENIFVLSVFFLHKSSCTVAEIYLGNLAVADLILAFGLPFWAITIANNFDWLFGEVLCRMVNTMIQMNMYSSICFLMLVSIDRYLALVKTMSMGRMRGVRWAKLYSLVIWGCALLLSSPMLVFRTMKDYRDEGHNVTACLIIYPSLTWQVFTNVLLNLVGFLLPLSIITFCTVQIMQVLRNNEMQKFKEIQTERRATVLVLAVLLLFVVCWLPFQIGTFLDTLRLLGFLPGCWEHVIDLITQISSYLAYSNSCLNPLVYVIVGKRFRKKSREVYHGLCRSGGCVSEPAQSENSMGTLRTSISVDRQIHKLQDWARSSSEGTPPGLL
The data set is described as follows: Bradykinin antagonist assay: guinea-pig ileum contraction. The following applies: at 10^-6 M, BK 2×10^-8 M, atropine 1 μM present.
Experimental: The ileum of the guinea-pig was selected as the preparation for the bioassay. This tissue contains predominantly BK2 receptors. The preparation consists of the longitudinal muscle layer with the adhering mesenteric plexus. The isolated preparation was kept in Krebs solution and contractions were measured with an isometric force transducer. […] Atropine (1 μM) was always present.

Numbered stars: 1 amine (or outer) side, 2 acyl side, 3 side chain; on linkers, the order of the positions; unused ones are H or OH. Bridge positions count the residues as written; N and C are the ends. Square brackets hold non-standard residues; d marks the D form. Peptide text beside a SMILES is read from it. NGly(3-aminopropyl) = O=C(CN(CCCN[*:3])[*:1])[*:2]; N(2-Aminoethyl)Gly = O=C(CN(CCN[*:3])[*:1])[*:2]; N(CH2CH2CO)Gly = O=C(CN(CCC(=O)[*:3])[*:1])[*:2]; N(CH2CH2COOH)Gly = O=C(O)CCNCC(=O)O; Gly(N(CH2)3NH2) = NCCCNCC(=O)O

Chain of Somatostatin Receptor (SSTR) Subtype SSTR-2B (P30874 1-356 isoform P30874-2): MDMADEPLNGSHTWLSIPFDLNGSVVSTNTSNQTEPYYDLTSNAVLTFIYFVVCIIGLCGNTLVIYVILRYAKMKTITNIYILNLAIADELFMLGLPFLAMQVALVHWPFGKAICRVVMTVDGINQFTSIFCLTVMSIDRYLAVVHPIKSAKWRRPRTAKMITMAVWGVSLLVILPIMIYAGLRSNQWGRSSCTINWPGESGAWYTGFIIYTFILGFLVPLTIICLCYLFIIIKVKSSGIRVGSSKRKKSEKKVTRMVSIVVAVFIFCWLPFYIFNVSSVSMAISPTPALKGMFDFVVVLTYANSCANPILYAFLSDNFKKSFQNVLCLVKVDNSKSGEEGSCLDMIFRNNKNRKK
Chain of Somatostatin Receptor (SSTR) Subtype SSTR-5 (P35346 whole entry): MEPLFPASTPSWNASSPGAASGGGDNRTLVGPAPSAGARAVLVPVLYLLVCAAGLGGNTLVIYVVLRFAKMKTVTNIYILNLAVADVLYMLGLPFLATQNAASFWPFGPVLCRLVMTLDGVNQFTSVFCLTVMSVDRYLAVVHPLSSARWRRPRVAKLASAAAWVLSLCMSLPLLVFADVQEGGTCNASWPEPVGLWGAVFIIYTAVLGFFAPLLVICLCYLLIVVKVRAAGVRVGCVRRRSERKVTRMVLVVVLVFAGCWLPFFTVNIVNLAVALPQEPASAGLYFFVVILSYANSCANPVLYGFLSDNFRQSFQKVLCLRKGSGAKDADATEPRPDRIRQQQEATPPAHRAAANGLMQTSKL

In the case of “Ada-(D)Arg-Arg-cyclo(N^α (1-(6-aminohexylene)Gly-Hyp-Phe-D-Asp)-D-Phe-Phe-Arg--OH [Example 1]”, in data set [1], the “inhibition of BK activity” value is on record as 30%.

Consider `C[C@@H](O)[C@H](NC(=O)CN(CCCN)C(=O)[C@@H](NC(=O)[C@H](CCCCN)NC(=O)[C@@H](Cc1c[nH]c2ccccc12)NC(=O)[C@H](Cc1ccccc1)NC(=O)CN(CC(=O)O)C(=O)[C@H](N)Cc1ccccc1)[C@@H](C)O)C(N)=O` [PTR 3005], for which, in data set [2], the inhibition at 1 µM is 9%, the inhibition at 0.1 µM stood at 0% and the inhibition at 0.01 µM came out at 0%. For the same molecule, in data set [3], the inhibition at 1 µM is 0%, the inhibition at 0.1 µM turned out to be 0% and the inhibition at 0.01 µM was 0%.

Turning to `C[C@@H](O)[C@H](NC(=O)CN(CCCN)C(=O)[C@@H](NC(=O)[C@H](CCCCN)NC(=O)[C@@H](Cc1c[nH]c2ccccc12)NC(=O)[C@H](Cc1ccccc1)NC(=O)CN(CCC(=O)O)C(=O)[C@H](N)Cc1ccccc1)[C@@H](C)O)C(N)=O` [PTR 3008] (H-[dF][N(CH2CH2COOH)Gly]F[dW]KT[Gly(N(CH2)3NH2)]T-NH2), in data set [2], the inhibition at 1 µM worked out at 15%, the inhibition at 0.1 µM came out at 6% and the inhibition at 0.01 µM was determined as 0%. Besides, in data set [3], the inhibition at 1 µM is 0%, the inhibition at 0.1 µM came to 0% and the inhibition at 0.01 µM was found to be 0%.

Consider `C[C@@H](O)[C@H](NC(=O)CN1CCNC(=O)CCN(C(=O)[C@H](N)Cc2ccccc2)CC(=O)N[C@@H](Cc2ccccc2)C(=O)N[C@H](Cc2c[nH]c3ccccc23)C(=O)N[C@@H](CCCCN)C(=O)N[C@@H]([C@@H](C)O)C1=O)C(N)=O` [PTR 3002] (H-[dF][N(CH2CH2CO)Gly]F[dW]KT[N(2-Aminoethyl)Gly]T-NH2; lactam 2-7), for which the “in vitro biostability in human serum” value in data set [4] is “as stable as octreotide, is more stable than the corresponding non-cyclic structure, and is much more stable than SRIF”.

For the molecule `C[C@@H](O)[C@H](NC(=O)CN1CCCNC(=O)CCN(C(=O)[C@H](N)Cc2ccccc2)CC(=O)N[C@@H](Cc2ccccc2)C(=O)N[C@H](Cc2c[nH]c3ccccc23)C(=O)N[C@@H](CCCCN)C(=O)N[C@@H]([C@@H](C)O)C1=O)C(N)=O` [PTR 3007] (H-[dF][N(CH2CH2CO)Gly]F[dW]KT[NGly(3-aminopropyl)]T-NH2; lactam 2-7), in data set [5] (rats observed for 4 hours post administration), the “respiratory disturbances, stereotyped behavior, muscle tone” value was “no respiratory disturbances”. Besides, in data set [5] (rats, dose of 1.5 mg/kg), the “tolerability after single intraperitoneal application” value is listed as “well tolerated”.

As for “Ada-D-Arg-Arg-N^α (6-acetamidohexylene)Gly-Hyp-Phe-D-Asp(NH-Me)-D-Phe-Phe-Arg--OH [Example 2]”, the “inhibition of BK activity” value in data set [6] and in data set [1] was 0% throughout.

In the case of “H-D-Arg-Arg-cyclo(N^α (4-propanoyl)Gly-Hyp-Phe-N^α (3-amido-propyl)-S-Phe)-Ser-D-Phe-Phe-Arg--OH [Example 4]”, the “inhibition of BK activity” value in data set [1] is reported as 17%.
